Here are results for 15 compounds from patent US20240226098A1, “COMPOUNDS AND METHODS FOR MODULATING SPLICING” (REMIX THERAPEUTICS INC., priority 2020, published 2024).

Type in all cases: cell-based
Test [1] deals with HTT mRNA, canonical junction (CJ). The test is described as follows: Splicing assay (RT-qPCR): decrease in HTT canonical junction (CJ) mRNA. The conditions noted are these: A673 or K562 cell line, 24 hours treatment, top dose 10 uM; concentration having 50% response in CJ decrease. As for the experimental part:
(§1) Compounds described herein were used to modulate RNA transcript abundance in cells. The expression of a target mRNA was measured by detecting the formation of an exon-exon junction in the canonical transcript (CJ). A compound mediated exon-inclusion event was detected by observing an increase in formation of a new junction with an alternative exon (AJ). Real-time qPCR assays were used to detect these splicing switches and interrogate the potency of various compounds towards different target genes. A high-throughput real time quantitative PCR (RT-qPCR) assay was developed to measure these two isoforms of the mRNA (CJ and AJ) for an exemplary gene, HTT, together with a control housekeeping gene, GAPDH or GUSB or PPIA, used for normalization. Briefly, the A673 or K562 cell line was treated with various compounds described herein (e.g., compounds of Formula (I)). After treatment, the levels of the HTT mRNA targets were determined from each sample of cell lysate by cDNA synthesis followed by qPCR.
(§2) • Cells-to-CT 1-step kit: ThermoFisher A25602, Cells-to-CT lysis reagent: ThermoFisher 4391851C, TaqMan™ Fast Virus 1-Step Master Mix: ThermoFisher 4444436 • GAPDH: VIC-PL, ThermoFisher 4326317E (Assay: Hs99999905_ml)—used for K562/suspension cell lines • GUSB: VIC-PL, ThermoFisher 4326320E (Assay: Hs99999908_ml)—used for K562/suspension cell lines • PPIA: VIC-PL, ThermoFisher 4326316E (Assay: Hs99999904_ml)—used for A673/adherent cell lines
(§3) The A673 cell line was cultured in DMEM with 10% FBS. Cells were diluted with full growth media and plated in a 96-well plate (15,000 cells in 100 ul media per well). The plate was incubated at 37° C. with 5% CO2 for 24 hours to allow cells to adhere. An 11-point 3-fold serial dilution of the compounds was made in DMSO then diluted in media in an intermediate plate. Compounds were transferred from the intermediate plate to the cell plate with the top dose at a final concentration of 10 uM in the well. Final DMSO concentration was kept at or below 0.25%. The cell plate was returned to the incubator at 37° C. with 5% CO2 for an additional 24 hours.
(§4) The K562 cell line was cultured in IMDM with 10% FBS. For K562, cells were diluted with full growth media and plated in either a 96-well plate (50,000 cells in 50 uL media per well) or a 384-well plate (8,000-40,000 cells in 45 uL media per well). An 11-point 3-fold serial dilution of the compounds were made in DMSO then diluted in media in an intermediate plate. Compound was transferred from the intermediate plate to the cell plate with the top dose at a final concentration of 10 uM in the well. Final DMSO concentration was kept at or below 0.25%. Final volume was 100 uL for 96-well plate and 50 uL for 384-well plate. The cell plate was then placed in an incubator at 37° C. with 5% CO2 for 24 hours.
(§5) The cells were then gently washed with 50 uL-100 uL cold PBS before proceeding to addition of lysis buffer. 30 uL-50 uL of room temperature lysis buffer with DNAse I (and optionally RNAsin) was added to each well. Cells were shaken/mixed thoroughly at room temperature for 5-10 minutes for lysis to take place and then 3 uL-5 uL of room temperature stop solution was added and wells were shaken/mixed again. After 2-5 minutes, the cell lysate plate was transferred to ice for RT-qPCR reaction setup. The lysates could also be frozen at −80° C. for later use.
(§6) In some cases, a direct lysis buffer was used. An appropriate volume of 3× lysis buffer (10 mM Tris, 150 mM NaCl, 1.5%-2.5% Igepal and 0.1-1 U/uL RNAsin, pH 7.4) was directly added to either K562 or A673 cells in media and mixed by pipetting 3 times. The plates were then incubated at room temperature with shaking/rocking for 20-50 minutes to allow for lysis to take place. After this time, the cell lysate plate was transferred to ice to set up for the RT-qPCR reactions. The lysates could also be frozen at −80° C. for later use. […]
For orientation: Real-time PCR tracks product formation cycle by cycle.

The next test relates to HTT CJ mRNA. The test is described as follows: Gene panel canonical junction qPCR assay: decrease in HTT CJ mRNA. The conditions noted are these: protocol as for Table 2, read-out: HTT (IC50, decrease in CJ mRNA levels). As for the experimental part:
as §1, §3, §4, §5
(§7) In some cases, a direct lysis buffer was used. An appropriate volume of 3× lysis buffer (10 mM Tris, 150 mM NaCl, 1.5%-2.5% Igepal and 0.1-1 U/uL RNAsin, pH 7.4) was directly added to either K562 or A673 cells in media and mixed by pipetting 3 times. The plates were then incubated at room temperature with shaking/rocking for 20-50 minutes to allow for lysis to take place. After this time, the cell lysate plate was transferred to ice to set up for the RT-qPCR reactions. The lysates could also be frozen at −80° C. for later use.
(§8) To set up 10 uL RT-qPCR reactions, cell lysates were transferred to 384-well qPCR plates containing the master mix according to the table below. The plates were sealed, gently vortexed, and spun down before the run. The volumes were adjusted accordingly in some instances where the reaction was carried in 20 uL. The table below summarizes the components of the RT-qPCR reactions:
(§9) The RT-qPCR reaction was performed using a QuantStudio (ThermoFisher) under the following fast cycling conditions. […]

The next test deals with Target C CJ mRNA. In words: Gene panel canonical junction qPCR assay: decrease in Target C CJ mRNA. Conditions: protocol as for Table 2, read-out: Target C (IC50, decrease in CJ mRNA levels). The method, then:
as §1, §3, §4, §5, §7, §8, §9

In another test the test system is SMN2 CJ mRNA. The test is described as follows: Gene panel canonical junction qPCR assay: decrease in SMN2 CJ mRNA. Conditions: protocol as for Table 2, read-out: SMN2 (IC50, decrease in CJ mRNA levels). As for the experimental part: as §1, §3, §4, §5, §7, §8, §9
The subject of test [2] is HTT mRNA, alternative junction (AJ). The test is described as follows: Splicing assay (RT-qPCR): increase in HTT alternative junction (AJ) mRNA. The conditions noted are these: A673 or K562 cell line, 24 hours treatment, top dose 10 uM; concentration having 50% response in AJ increase. As for the experimental part: as §1, §2, §3, §4, §5, §6

Where only a bound is given, the exact number is not on record here.

Usually AC50 stands for the concentration at which the activity in the assay is half-maximal. Lower therefore signals activity at low concentration. Broadly, the IC50 is the concentration that gives 50% inhibition. As for `Cc1cn2cc(NC(=O)c3ccc(N4C[C@H]5CC[C@@H](C4)N5)c4ccnnc34)cc(F)c2n1` [Compound 108], the AC50 in test [1] and in test [2] was 1000 to 10000 nM each time. The figures for the IC50 in the test with HTT CJ mRNA, with Target C CJ mRNA and in the test with SMN2 CJ mRNA were 1000 to 10000 nM, 100 to 1000 nM and < 100 nM, respectively.

On to `Cc1cn2cc(NC(=O)c3ccc(N(C)[C@@H]4C[C@H]5CC[C@@H](C4)N5)c4ccnnc34)cc(F)c2n1` [Compound 156, 5-[(exo)-8-azabicyclo[3.2.1]octan-3-yl(methyl)amino]-N-[8-fluoro-2-methylimidazo[1,2-a]pyridin-6-yl]cinnoline-8-carboxamide], for which the AC50 in test [1] and in test [2] was > 10000 nM in each case. Besides, the IC50 in the test with HTT CJ mRNA is > 10000 nM; with Target C CJ mRNA, > 10000 nM; in the test on SMN2 CJ mRNA it was 100 to 1000 nM.

On to `Cc1cn2nc(NC(=O)c3ccc(N4CCNCC4)c4ccnnc34)cc(C)c2n1` [Compound 100, N-[2,8-dimethylimidazo[1,2-b]pyridazin-6-yl]-5-(piperazin-1-yl)cinnoline-8-carboxamide], for which the half-maximal activity concentration (AC50) in test [1] and in test [2] was 100 to 1000 nM throughout. Also, the half-inhibitory concentration (IC50) in the test with HTT CJ mRNA, in the test with Target C CJ mRNA and in the test with SMN2 CJ mRNA was 100 to 1000 nM throughout.

With `Cc1cn2cc(NC(=O)c3ccc(C4CCNCC4)c4ccnnc34)cc(F)c2n1` [Compound 103, N-[8-fluoro-2-methylimidazo[1,2-a]pyridin-6-yl]-5-(piperidin-4-yl) cinnoline-8-carboxamide], the AC50 in test [1] was 1000 to 10000 nM; in test [2], 100 to 1000 nM. Besides, the IC50 is 100 to 1000 nM in the test with HTT CJ mRNA, 1000 to 10000 nM with Target C CJ mRNA and 1000 to 10000 nM in the test on SMN2 CJ mRNA.

In the case of `CCN1CCC(c2ccc(C(=O)Nc3cc(F)c4nc(C)cn4c3)c3nnccc23)CC1` [Compound 141, 5-(1-ethylpiperidin-4-yl)-N-[8-fluoro-2-methylimidazo[1,2-a]pyridin-6-yl] cinnoline-8-carboxamide], the AC50 in test [1] and in test [2] was 1000 to 10000 nM in each case. The IC50 with HTT CJ mRNA was 1000 to 10000 nM; in the test with Target C CJ mRNA, 1000 to 10000 nM; in the test on SMN2 CJ mRNA, < 100 nM.

For the compound `Cc1cn2cc(NC(=O)c3ccc(N4CCC(NC(C)(C)C)CC4)c4ccnnc34)cc(F)c2n1` [Compound 138, 5-[4-(tert-butylamino)piperidin-1-yl]-N-[8-fluoro-2-methylimidazo[1,2-a]pyridin-6-yl]cinnoline-8-carboxamide], the AC50 in test [1] and in test [2] was 1000 to 10000 nM each time. Further, the IC50 in the test on HTT CJ mRNA is 1000 to 10000 nM; in the test on Target C CJ mRNA, 1000 to 10000 nM; in the test with SMN2 CJ mRNA it was < 100 nM.

For `Cc1nc2c(F)cc(NC(=O)c3ccc(N4CCNCC4)c4ccnnc34)cc2s1` [Compound 118, N-(4-fluoro-2-methyl-1,3-benzothiazol-6-yl)-5-(piperazin-1-yl) cinnoline-8-carboxamide], the AC50 in test [1] and in test [2] was 100 to 1000 nM each time. Besides, the IC50 is 100 to 1000 nM in the test with HTT CJ mRNA, 100 to 1000 nM in the test with Target C CJ mRNA and < 100 nM in the test on SMN2 CJ mRNA.

For the compound `Cc1nc2c(F)cc(NC(=O)c3ccc(N4CCNCC4)c4ccnnc34)cc2o1` [Compound 117, N-(4-fluoro-2-methyl-1,3-benzoxazol-6-yl)-5-(piperazin-1-yl) cinnoline-8-carboxamide], the concentration at half-maximal activity (AC50) in test [1] and in test [2] was 1000 to 10000 nM in each case. The IC50 with HTT CJ mRNA is 1000 to 10000 nM; with Target C CJ mRNA, 1000 to 10000 nM; in the test with SMN2 CJ mRNA, < 100 nM.

On to `Cc1cn2cc(NC(=O)c3ccc(N4C[C@H]5C[C@@H]4C5N(C)C)c4ccnnc34)cc(F)c2n1` (stereo partly drawn) [Compound 155], for which the AC50 in test [1] and in test [2] was > 10000 nM in each case. For the same compound, the 50% inhibitory concentration (IC50) was > 10000 nM in the test on HTT CJ mRNA, > 10000 nM in the test on Target C CJ mRNA and 100 to 1000 nM in the test on SMN2 CJ mRNA.

For `Cn1cc2c(F)cc(NC(=O)c3ccc(N4CCNCC4)c4ccnnc34)cc2n1` [Compound 116, N-(4-fluoro-2-methylindazol-6-yl)-5-(piperazin-1-yl) cinnoline-8-carboxamide], the AC50 in test [1] and in test [2] was > 10000 nM in each case. The IC50 with HTT CJ mRNA, in the test with Target C CJ mRNA and in the test on SMN2 CJ mRNA was > 10000 nM in each case.

As to `Cc1cn2cc(NC(=O)c3ccc(N4CCN5CCCC5C4)c4ccnnc34)cc(F)c2n1` (stereo in doubt) [Compound 153, 5-[(8aS)-hexahydro-1H-pyrrolo[1,2-a]pyrazin-2-yl]-N-[8-fluoro-2-methylimidazo[1,2-a]pyridin-6-yl]cinnoline-8-carboxamide], the concentration at half-maximal activity (AC50) in test [1] and in test [2] was 100 to 1000 nM throughout. Further, the IC50 in the test with HTT CJ mRNA was 100 to 1000 nM; in the test with Target C CJ mRNA, 1000 to 10000 nM; in the test on SMN2 CJ mRNA, < 100 nM.

For the compound `Cc1cn2nc(NC(=O)c3ccc(N4CCNCC4)c4ccnnc34)nc2c(C)n1` [Compound 122], the concentration at half-maximal activity (AC50) in test [1] and in test [2] was 1000 to 10000 nM throughout. Also, the IC50 in the test on HTT CJ mRNA, with Target C CJ mRNA and with SMN2 CJ mRNA was 1000 to 10000 nM each time.

As to `CCC1CN(c2ccc(C(=O)Nc3cc(F)c4nc(C)cn4c3)c3nnccc23)CCN1` (stereo in doubt) [Compound 151, 5-[(3S)-3-ethylpiperazin-1-yl]-N-[8-fluoro-2-methylimidazo[1,2-a]pyridin-6-yl]cinnoline-8-carboxamide], the AC50 in test [1] and in test [2] was 1000 to 10000 nM throughout. Further, the IC50 in the test with HTT CJ mRNA was 1000 to 10000 nM; with Target C CJ mRNA it was > 10000 nM; in the test on SMN2 CJ mRNA, < 100 nM.

For the compound `Cc1cc2c(N3CCNCC3)ccc(C(=O)Nc3cc(F)c4nc(C)cn4c3)c2nn1` [Compound 159], the AC50 in test [1] and in test [2] was 100 to 1000 nM each time. Besides, the values for the IC50 in the test on HTT CJ mRNA, in the test on Target C CJ mRNA and in the test with SMN2 CJ mRNA were 100 to 1000 nM, 1000 to 10000 nM and < 100 nM, respectively.

In the case of `O=C(Nc1cn[nH]c1)c1ccc(N2CCNCC2)c2ccnnc12` [Compound 126, 5-(piperazin-1-yl)-N-(1H-pyrazol-4-yl)cinnoline-8-carboxamide], the AC50 in test [1] and in test [2] was > 10000 nM in each case. For the same compound, the IC50 with HTT CJ mRNA, with Target C CJ mRNA and in the test with SMN2 CJ mRNA was > 10000 nM each time.
